# Test system: HUVEC/MSC spheroids viability
# Experiment: Human HUVEC/MSC cell line growth inhibition [KRAS2];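 on viability, T/C: percent of DMSO vehicle control luminescence so 100% = untreated viability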
# Details: for IC50: curve of first compound; for viability, T/C: stronger effect = lower value
# Method in brief: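 Spheroids of pooled-donor HUVEC and hMSC (passage ≤5) without tumour cells were treated with KRAS-pathway inhibitors alone and combined with targeted agents. Top concentration was at or near clinical Cmax, or 10 microM when Cmax was unknown, descending in half-log steps.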
# [1] = second compound 0.0316 µM, first compound 0.00949 µM
# [2] = second compound 0.0316 µM, first compound 0.03 µM
# [3] = second compound 0.0316 µM, first compound 0.0949 µM
# [4] = second compound 0.0316 µM, first compound 0.3 µM
# [5] = second compound 0.0316 µM, first compound 0.949 µM
# [6] = second compound 0.0316 µM, first compound 3 µM
# [7] = second compound 0.1 µM, first compound 0.00949 µM
# [8] = second compound 0.1 µM, first compound 0.03 µM
# [9] = second compound 0.1 µM, first compound 0.0949 µM
# [10] = second compound 0.1 µM, first compound 0.3 µM
# [11] = second compound 0.1 µM, first compound 0.949 µM
# [12] = second compound 0.1 µM, first compound 3 µM
# [13] = second compound 0.316 µM, first compound 0.00949 µM
# [14] = second compound 0.316 µM, first compound 0.03 µM
# [15] = second compound 0.316 µM, first compound 0.0949 µM
# [16] = second compound 0.316 µM, first compound 0.3 µM
# [17] = second compound 0.316 µM, first compound 0.949 µM
# [18] = second compound 0.316 µM, first compound 3 µM
# [19] = second compound 1 µM, first compound 0.00949 µM
# [20] = second compound 1 µM, first compound 0.03 µM
# [21] = second compound 1 µM, first compound 0.0949 µM
# [22] = second compound 1 µM, first compound 0.3 µM
# [23] = second compound 1 µM, first compound 0.949 µM
# [24] = second compound 1 µM, first compound 3 µM
# [25] = second compound 3.16 µM, first compound 0.00949 µM
# [26] = second compound 3.16 µM, first compound 0.03 µM
# [27] = second compound 3.16 µM, first compound 0.0949 µM
# [28] = second compound 3.16 µM, first compound 0.3 µM
# [29] = second compound 3.16 µM, first compound 0.949 µM
# [30] = second compound 3.16 µM, first compound 3 µM
# [31] = second compound 10 µM, first compound 0.00949 µM
# [32] = second compound 10 µM, first compound 0.03 µM
# [33] = second compound 10 µM, first compound 0.0949 µM
# [34] = second compound 10 µM, first compound 0.3 µM
# [35] = second compound 10 µM, first compound 0.949 µM
# [36] = second compound 10 µM, first compound 3 µM
smiles,measurement,setting,value
CC1COCCN1c1cc(-c2ccnn2C)c2ccnc(-c3ccn[nH]3)c2n1 (stereo unspecified) + CC1OCC2(CCN(c3cnc(Sc4ccnc(N)c4Cl)c(N)n3)CC2)C1N,IC50,second compound 0.0316 µM,> 3000 nM
same,IC50,second compound 0.1 µM,2640 nM
same,IC50,second compound 0.316 µM,1900 nM
same,IC50,second compound 1 µM,2050 nM
same,IC50,second compound 3.16 µM,679 nM
same,IC50,second compound 10 µM,760 nM
same,"viability, T/C",[1],97.8%
same,"viability, T/C",[2],99.4%
same,"viability, T/C",[3],82.6%
same,"viability, T/C",[4],72.4%
same,"viability, T/C",[5],64.5%
same,"viability, T/C",[6],51.5%
same,"viability, T/C",[7],95.8%
same,"viability, T/C",[8],95.7%
same,"viability, T/C",[9],83.4%
same,"viability, T/C",[10],80.4%
same,"viability, T/C",[11],62.1%
same,"viability, T/C",[12],48.6%
same,"viability, T/C",[13],105%
same,"viability, T/C",[14],101%
same,"viability, T/C",[15],78.9%
same,"viability, T/C",[16],64.3%
same,"viability, T/C",[17],55.3%
same,"viability, T/C",[18],46.4%
same,"viability, T/C",[19],82.6%
same,"viability, T/C",[20],94.7%
same,"viability, T/C",[21],78.3%
same,"viability, T/C",[22],74.5%
same,"viability, T/C",[23],61.6%
same,"viability, T/C",[24],44.4%
same,"viability, T/C",[25],84.7%
same,"viability, T/C",[26],90.5%
same,"viability, T/C",[27],69.1%
same,"viability, T/C",[28],63.7%
same,"viability, T/C",[29],45%
same,"viability, T/C",[30],32.9%
same,"viability, T/C",[31],56.2%
same,"viability, T/C",[32],65.5%
same,"viability, T/C",[33],61.7%
same,"viability, T/C",[34],58.2%
same,"viability, T/C",[35],48%
same,"viability, T/C",[36],24.7%
Cn1nccc1Nc1nccc(-c2cc3c(s2)C(C)(C)N(CCN2CCOCC2)C3=O)n1 + CC1OCC2(CCN(c3cnc(Sc4ccnc(N)c4Cl)c(N)n3)CC2)C1N,IC50,second compound 0.0316 µM,2080 nM
same,IC50,second compound 0.1 µM,2730 nM
same,IC50,second compound 0.316 µM,2530 nM
same,IC50,second compound 1 µM,1740 nM
same,IC50,second compound 3.16 µM,1350 nM
same,IC50,second compound 10 µM,430 nM
same,"viability, T/C","second compound 0.0316 µM, first compound 0.0316 µM",105%
same,"viability, T/C","second compound 0.0316 µM, first compound 0.1 µM",127%
same,"viability, T/C","second compound 0.0316 µM, first compound 0.316 µM",108%
same,"viability, T/C","second compound 0.0316 µM, first compound 1 µM",78%
same,"viability, T/C","second compound 0.0316 µM, first compound 3.16 µM",34.5%
same,"viability, T/C","second compound 0.0316 µM, first compound 10 µM",7.19%
same,"viability, T/C","second compound 0.1 µM, first compound 0.0316 µM",117%
same,"viability, T/C","second compound 0.1 µM, first compound 0.1 µM",127%
same,"viability, T/C","second compound 0.1 µM, first compound 0.316 µM",124%
same,"viability, T/C","second compound 0.1 µM, first compound 1 µM",96.3%
same,"viability, T/C","second compound 0.1 µM, first compound 3.16 µM",43.8%
same,"viability, T/C","second compound 0.1 µM, first compound 10 µM",6.82%
same,"viability, T/C","second compound 0.316 µM, first compound 0.0316 µM",112%
same,"viability, T/C","second compound 0.316 µM, first compound 0.1 µM",120%
same,"viability, T/C","second compound 0.316 µM, first compound 0.316 µM",105%
same,"viability, T/C","second compound 0.316 µM, first compound 1 µM",78.8%
same,"viability, T/C","second compound 0.316 µM, first compound 3.16 µM",44.2%
same,"viability, T/C","second compound 0.316 µM, first compound 10 µM",5.45%
same,"viability, T/C","second compound 1 µM, first compound 0.0316 µM",95.9%
same,"viability, T/C","second compound 1 µM, first compound 0.1 µM",97.6%
same,"viability, T/C","second compound 1 µM, first compound 0.316 µM",107%
same,"viability, T/C","second compound 1 µM, first compound 1 µM",60.7%
same,"viability, T/C","second compound 1 µM, first compound 3.16 µM",34.6%
same,"viability, T/C","second compound 1 µM, first compound 10 µM",4.73%
same,"viability, T/C","second compound 3.16 µM, first compound 0.0316 µM",79.7%
same,"viability, T/C","second compound 3.16 µM, first compound 0.1 µM",90.2%
same,"viability, T/C","second compound 3.16 µM, first compound 0.316 µM",80.3%
same,"viability, T/C","second compound 3.16 µM, first compound 1 µM",57.7%
same,"viability, T/C","second compound 3.16 µM, first compound 3.16 µM",25.5%
same,"viability, T/C","second compound 3.16 µM, first compound 10 µM",8.64%
same,"viability, T/C","second compound 10 µM, first compound 0.0316 µM",73%
same,"viability, T/C","second compound 10 µM, first compound 0.1 µM",67.4%
same,"viability, T/C","second compound 10 µM, first compound 0.316 µM",56.1%
same,"viability, T/C","second compound 10 µM, first compound 1 µM",34.2%
same,"viability, T/C","second compound 10 µM, first compound 3.16 µM",21.5%
same,"viability, T/C","second compound 10 µM, first compound 10 µM",4.23%
CC(=O)OC12COC1CC(O)C1(C)C(=O)C(O)C3=C(C)C(OC(=O)C(O)C(NC(=O)OC(C)(C)C)c4ccccc4)CC(O)(C(OC(=O)c4ccccc4)C21)C3(C)C (stereo unspecified) + CNCc1ccccc1-c1csc(C(C)Nc2nc(C)nc3cc(OC)c(OC)cc23)c1,IC50,second compound 0.0316 µM,< 9.49 nM
same,IC50,second compound 0.1 µM,< 9.49 nM
same,IC50,second compound 0.316 µM,39.6 nM
same,IC50,second compound 1 µM,> 3000 nM
same,IC50,second compound 3.16 µM,> 3000 nM
same,IC50,second compound 10 µM,< 9.49 nM
same,"viability, T/C",[1],40.6%
same,"viability, T/C",[2],40.6%
same,"viability, T/C",[3],49.7%
same,"viability, T/C",[4],53%
same,"viability, T/C",[5],49.1%
same,"viability, T/C",[6],54.2%
same,"viability, T/C",[7],44.2%
same,"viability, T/C",[8],43.3%
same,"viability, T/C",[9],51.8%
same,"viability, T/C",[10],45.1%
same,"viability, T/C",[11],42.9%
same,"viability, T/C",[12],50%
same,"viability, T/C",[13],44.8%
same,"viability, T/C",[14],56.5%
same,"viability, T/C",[15],54.6%
same,"viability, T/C",[16],43.3%
same,"viability, T/C",[17],48.8%
same,"viability, T/C",[18],49%
same,"viability, T/C",[19],47.3%
same,"viability, T/C",[20],62.2%
same,"viability, T/C",[21],68.9%
same,"viability, T/C",[22],54.3%
same,"viability, T/C",[23],55.4%
same,"viability, T/C",[24],61.9%
same,"viability, T/C",[25],78.1%
same,"viability, T/C",[26],73.5%
same,"viability, T/C",[27],73.8%
same,"viability, T/C",[28],77.6%
same,"viability, T/C",[29],76.8%
same,"viability, T/C",[30],56.7%
same,"viability, T/C",[31],0.32%
same,"viability, T/C",[32],0.36%
same,"viability, T/C",[33],0.39%
same,"viability, T/C",[34],0.34%
same,"viability, T/C",[35],0.34%
same,"viability, T/C",[36],1.75%

# Reference: PubChem BioAssay AID2060912 (Molecular Pharmacology Branch, DTP, NCI, 2025)
